Experimental data published in US20220409620A1, “REDUCING IMMUNOGENICITY TO PEGLOTICASE” (Horizon Pharma Rheumatology LLC, priority 2016, published 2022).

System: adult patients with uncontrolled gout
Assay: Serum uric acid (sUA) levels and sUA responder rate, open-label study of pegloticase with MTX (MIRROR OL)
Type: in vivo, human
Experimental: The primary objective is to estimate the response rate during Month 6 (Weeks 20, 22, and 24), as measured by the sustained normalization of serum uric acid (SUA) to <6 mg/dL for at least 80% of the time during Month 6 in subjects receiving KXX with MTX.
The primary efficacy outcome endpoint is the sustained normalization of SUA to <6 mg/dL for at least 80% of the time during month 6 (weeks 20, 22, and 24) in subjects receiving KXX with MTX. […] Participants who achieve this endpoint were classified as “responders.” Serum uric acid (SUA) responders may also be defined as participants achieving and maintaining SUA <6 mg/dL for at least 80% of the time during Month 6 (Weeks 20, 22, and 24).
Blood samples may be collected prior to each pegloticase infusion for measurement of SUA levels using the Beckman Coulter AU System Uric Acid procedure. Participants were declared “non-responders” if there were SUA measures >6 mg/dL at 2 consecutive study visits beginning with the week 2 visit. […] This assumption and subsequent discontinuation of pegloticase was consistent with the protocol of large phase III randomized controlled trials and the product label. A formal stopping rule was 2 occasions of SUA levels of greater than 6 mg/dL.
Clinical Chemistry—Blood samples were collected prior to each pegloticase infusion for measurement of SUA levels (primary efficacy parameter) using the Beckman Coulter AU System Uric Acid procedure. In this procedure uric acid is converted to hydrogen peroxide. Hydrogen peroxide reacts with reagent to produce a chromophore which is read bichromatically at 660/800 nm. The amount of dye formed is proportional to the uric acid concentration in the sample.
Serum samples for measurement of SUA levels were collected at the Screening Visit, the Week −4 Visit (prior to the first dose of MTX), and the Week −2 Visit during the MTX Run-in Period; within 48 hours prior to each pegloticase infusion and after the end of each pegloticase infusion prior to discharge from the site during the Pegloticase+IMM Period; at the non-infusion Week 52/End of Study/Early Termination Visits and at the Post Treatment 3 and 6 Month Follow-up Visits. Additional serum samples for SUA levels were collected at optional non-infusion (Frequent Sampling) Visits at Weeks 1 and 7. […] Subjects with SUA level >6 mg/dL at 2 consecutive visits beginning at Week 2 visit discontinued treatment, completed the End of Pegloticase Infusion Visit procedures within 2 weeks and continued the subject visits according to the protocol (without treatment).
Efficacy analyses were performed using the modified intention-to-treat (mITT) population, defined as all enrolled subjects who received ≥1 dose of pegloticase. The proportion of Month 6 responders was summarized, along with a 95% confidence interval for the proportion. The proportion of Month 3 and overall (Months 3 and 6 combined) responders was analyzed similarly.
A subject was declared a non-responder if the subject had SUA level >6 mg/dL at 2 consecutive study visits beginning with the Week 2 Visit. In addition, a subject who withdraws from study treatment for any reason after the first dose of pegloticase in the KXX+MTX Period and prior to Month 6 (for the primary endpoint) or Month 3 (for the secondary endpoint) was considered a non-responder if SUA values were not collected at the planned time points.
Patients were administered oral MTX (15 mg/week) and folate (1 mg/day) 4 weeks prior to the first pegloticase infusion (Day 1) and throughout the pegloticase treatment period. Blood was drawn prior to each infusion to measure sUA level, monitor clinical parameters, and examine for ADA development. All patients followed typical IR prophylaxis protocols (fexofenadine one day before and the morning of each infusion and acetaminophen and IV corticosteroid the morning of each infusion).

[1] = Month 6 sUA Responders, Week 48-Post-Infusion, n=3
[2] = Month 6 sUA Responders, Week 48-Pre-Infusion, n=2
[3] = Month 6 sUA Responders, Week 50-Post-Infusion, n=3
[4] = Month 6 sUA Responders, Week 50-Pre-Infusion, n=2
[5] = Month 6 sUA Responders, Week 52/ET, n=2
[6] = Week 2 - Post-Infusion, mITT Population
[7] = Week 2 - Pre-Infusion, mITT Population
[8] = Week 4 - Post-Infusion, mITT Population
[9] = Week 4 - Pre-Infusion, mITT Population
[10] = Week 6 - Post-Infusion, mITT Population
[11] = Week 6 - Pre-Infusion, mITT Population
[12] = Week 8 - Post-Infusion, mITT Population
[13] = Week 8 - Pre-Infusion, mITT Population
[14] = Week 10 - Post-Infusion, mITT Population
[15] = Week 10 - Pre-Infusion, mITT Population
[16] = Week 12 - Post-Infusion, mITT Population
[17] = Week 12 - Pre-Infusion, mITT Population
[18] = Week 14 - Post-Infusion, mITT Population
[19] = Week 14 - Pre-Infusion, mITT Population
[20] = Week 16 - Post-Infusion, mITT Population
[21] = Week 16 - Pre-Infusion, mITT Population
[22] = Week 18 - Post-Infusion, mITT Population
[23] = Week 18 - Pre-Infusion, mITT Population

## pegloticase
[1]
  Serum Uric Acid, Change from Baseline, Mean (SD): −10.33 (4.922) mg/dL
  Serum Uric Acid, Change from Baseline, Median: -9.80 mg/dL
  Serum Uric Acid, Observed, Mean (SD): 1.60 (2.252) mg/dL
  Serum Uric Acid, Observed, Median: 0.30 mg/dL
  sUA <6 mg/dL, n (%): 3 (100%)
[2]
  Serum Uric Acid, Change from Baseline, Mean (SD): −12.65 (4.031) mg/dL
  Serum Uric Acid, Change from Baseline, Median: -12.65 mg/dL
  Serum Uric Acid, Observed, Mean (SD): 0.30 (0.000) mg/dL
  Serum Uric Acid, Observed, Median: 0.30 mg/dL
  sUA <6 mg/dL, n (%): 2 (100%)
[3]
  Serum Uric Acid, Change from Baseline, Mean (SD): −10.57 (4.598) mg/dL
  Serum Uric Acid, Change from Baseline, Median: -9.80 mg/dL
  Serum Uric Acid, Observed, Mean (SD): 1.37 (1.848) mg/dL
  Serum Uric Acid, Observed, Median: 0.30 mg/dL
  sUA <6 mg/dL, n (%): 3 (100%)
[4]
  Serum Uric Acid, Change from Baseline, Mean (SD): −12.65 (4.031) mg/dL
  Serum Uric Acid, Change from Baseline, Median: -12.65 mg/dL
  Serum Uric Acid, Observed, Mean (SD): 0.30 (0.000) mg/dL
  Serum Uric Acid, Observed, Median: 0.30 mg/dL
  sUA <6 mg/dL, n (%): 2 (100%)
[5]
  Serum Uric Acid, Change from Baseline, Mean (SD): −12.65 (4.031) mg/dL
  Serum Uric Acid, Change from Baseline, Median: -12.65 mg/dL
  Serum Uric Acid, Observed, Mean (SD): 0.30 (0.000) mg/dL
  Serum Uric Acid, Observed, Median: 0.30 mg/dL
  sUA <6 mg/dL, n (%): 2 (100%)
Week 1, mITT Population
  Serum Uric Acid, Change from Baseline, Mean (SD): −7.28 (1.556) mg/dL
  Serum Uric Acid, Change from Baseline, Median: -7.75 mg/dL
  Serum Uric Acid, Observed, Mean (SD): 0.30 (0.000) mg/dL
  Serum Uric Acid, Observed, Median: 0.30 mg/dL
  sUA <6 mg/dL, n (%): 6 (100%)
[6]
  Serum Uric Acid, Change from Baseline, Mean (SD): −8.86 (2.486) mg/dL
  Serum Uric Acid, Change from Baseline, Median: -8.70 mg/dL
  Serum Uric Acid, Observed, Mean (SD): 0.30 (0.000) mg/dL
  Serum Uric Acid, Observed, Median: 0.30 mg/dL
  sUA <6 mg/dL, n (%): 14 (100%)
[7]
  Serum Uric Acid, Change from Baseline, Mean (SD): −7.90 (2.878) mg/dL
  Serum Uric Acid, Change from Baseline, Median: -8.70 mg/dL
  Serum Uric Acid, Observed, Mean (SD): 1.26 (2.163) mg/dL
  Serum Uric Acid, Observed, Median: 0.30 mg/dL
  sUA <6 mg/dL, n (%): 13 (92.9%)
[8]
  Serum Uric Acid, Change from Baseline, Mean (SD): −8.92 (2.577) mg/dL
  Serum Uric Acid, Change from Baseline, Median: -8.80 mg/dL
  Serum Uric Acid, Observed, Mean (SD): 0.30 (0.000) mg/dL
  Serum Uric Acid, Observed, Median: 0.30 mg/dL
  sUA <6 mg/dL, n (%): 13 (100%)
[9]
  Serum Uric Acid, Change from Baseline, Mean (SD): −7.54 (3.768) mg/dL
  Serum Uric Acid, Change from Baseline, Median: -8.00 mg/dL
  Serum Uric Acid, Observed, Mean (SD): 1.61 (2.637) mg/dL
  Serum Uric Acid, Observed, Median: 0.30 mg/dL
  sUA <6 mg/dL, n (%): 12 (85.7%)
[10]
  Serum Uric Acid, Change from Baseline, Mean (SD): −8.98 (2.679) mg/dL
  Serum Uric Acid, Change from Baseline, Median: -8.95 mg/dL
  Serum Uric Acid, Observed, Mean (SD): 0.30 (0.000) mg/dL
  Serum Uric Acid, Observed, Median: 0.30 mg/dL
  sUA <6 mg/dL, n (%): 12 (100%)
[11]
  Serum Uric Acid, Change from Baseline, Mean (SD): −8.31 (3.538) mg/dL
  Serum Uric Acid, Change from Baseline, Median: -8.80 mg/dL
  Serum Uric Acid, Observed, Mean (SD): 0.91 (2.191) mg/dL
  Serum Uric Acid, Observed, Median: 0.30 mg/dL
  sUA <6 mg/dL, n (%): 12 (92.3%)
Week 7, mITT Population
  Serum Uric Acid, Change from Baseline, Mean (SD): −8.90 (4.755) mg/dL
  Serum Uric Acid, Change from Baseline, Median: -7.85 mg/dL
  Serum Uric Acid, Observed, Mean (SD): 0.30 (0.000) mg/dL
  Serum Uric Acid, Observed, Median: 0.30 mg/dL
  sUA <6 mg/dL, n (%): 4 (100%)
[12]
  Serum Uric Acid, Change from Baseline, Mean (SD): −8.98 (2.679) mg/dL
  Serum Uric Acid, Change from Baseline, Median: -8.95 mg/dL
  Serum Uric Acid, Observed, Mean (SD): 0.30 (0.000) mg/dL
  Serum Uric Acid, Observed, Median: 0.30 mg/dL
  sUA <6 mg/dL, n (%): 12 (100%)
[13]
  Serum Uric Acid, Change from Baseline, Mean (SD): −8.20 (3.624) mg/dL
  Serum Uric Acid, Change from Baseline, Median: -8.33 mg/dL
  Serum Uric Acid, Observed, Mean (SD): 1.08 (2.472) mg/dL
  Serum Uric Acid, Observed, Median: 0.30 mg/dL
  sUA <6 mg/dL, n (%): 11 (91.7%)
[14]
  Serum Uric Acid, Change from Baseline, Mean (SD): −8.97 (2.810) mg/dL
  Serum Uric Acid, Change from Baseline, Median: -8.80 mg/dL
  Serum Uric Acid, Observed, Mean (SD): 0.30 (0.000) mg/dL
  Serum Uric Acid, Observed, Median: 0.30 mg/dL
  sUA <6 mg/dL, n (%): 11 (100%)
[15]
  Serum Uric Acid, Change from Baseline, Mean (SD): −8.33 (3.476) mg/dL
  Serum Uric Acid, Change from Baseline, Median: -8.70 mg/dL
  Serum Uric Acid, Observed, Mean (SD): 0.95 (2.252) mg/dL
  Serum Uric Acid, Observed, Median: 0.30 mg/dL
  sUA <6 mg/dL, n (%): 11 (91.7%)
[16]
  Serum Uric Acid, Change from Baseline, Mean (SD): −9.13 (2.911) mg/dL
  Serum Uric Acid, Change from Baseline, Median: -9.05 mg/dL
  Serum Uric Acid, Observed, Mean (SD): 0.30 (0.000) mg/dL
  Serum Uric Acid, Observed, Median: 0.30 mg/dL
  sUA <6 mg/dL, n (%): 10 (100%)
[17]
  Serum Uric Acid, Change from Baseline, Mean (SD): −8.98 (2.806) mg/dL
  Serum Uric Acid, Change from Baseline, Median: -8.80 mg/dL
  Serum Uric Acid, Observed, Mean (SD): 0.30 (0.015) mg/dL
  Serum Uric Acid, Observed, Median: 0.30 mg/dL
  sUA <6 mg/dL, n (%): 11 (100%)
[18]
  Serum Uric Acid, Change from Baseline, Mean (SD): −9.01 (2.959) mg/dL
  Serum Uric Acid, Change from Baseline, Median: -9.05 mg/dL
  Serum Uric Acid, Observed, Mean (SD): 0.30 (0.000) mg/dL
  Serum Uric Acid, Observed, Median: 0.30 mg/dL
  sUA <6 mg/dL, n (%): 10 (100%)
[19]
  Serum Uric Acid, Change from Baseline, Mean (SD): −8.97 (2.810) mg/dL
  Serum Uric Acid, Change from Baseline, Median: -8.80 mg/dL
  Serum Uric Acid, Observed, Mean (SD): 0.30 (0.000) mg/dL
  Serum Uric Acid, Observed, Median: 0.30 mg/dL
  sUA <6 mg/dL, n (%): 11 (100%)
[20]
  Serum Uric Acid, Change from Baseline, Mean (SD): −8.97 (2.810) mg/dL
  Serum Uric Acid, Change from Baseline, Median: -8.80 mg/dL
  Serum Uric Acid, Observed, Mean (SD): 0.30 (0.000) mg/dL
  Serum Uric Acid, Observed, Median: 0.30 mg/dL
  sUA <6 mg/dL, n (%): 11 (100%)
[21]
  Serum Uric Acid, Change from Baseline, Mean (SD): −8.97 (2.810) mg/dL
  Serum Uric Acid, Change from Baseline, Median: -8.80 mg/dL
  Serum Uric Acid, Observed, Mean (SD): 0.30 (0.000) mg/dL
  Serum Uric Acid, Observed, Median: 0.30 mg/dL
  sUA <6 mg/dL, n (%): 11 (100%)
[22]
  Serum Uric Acid, Change from Baseline, Mean (SD): −8.97 (2.810) mg/dL
  Serum Uric Acid, Change from Baseline, Median: -8.80 mg/dL
  Serum Uric Acid, Observed, Mean (SD): 0.30 (0.000) mg/dL
  Serum Uric Acid, Observed, Median: 0.30 mg/dL
  sUA <6 mg/dL, n (%): 11 (100%)
[23]
  Serum Uric Acid, Change from Baseline, Mean (SD): −8.97 (2.810) mg/dL
  Serum Uric Acid, Change from Baseline, Median: -8.80 mg/dL
  Serum Uric Acid, Observed, Mean (SD): 0.30 (0.000) mg/dL
  Serum Uric Acid, Observed, Median: 0.30 mg/dL
  sUA <6 mg/dL, n (%): 11 (100%)
